Assay [1] has as its system human colon cancer cell line HCT-116. In words: In vitro cell proliferation assay. The conditions noted are these: HCT-116, 72 hours of treatment, cell count, read-out: Cell Antiproliferation IC50. Format: cell-based. As to the method:
The compounds of the invention were further tested, in vitro to assess the anti-proliferative effect onto cell cultures.
In Vitro Cell Proliferation Assay
The human colon cancer cell line HCT-116 was seeded at 5000 cells/cm^2 in 24 wells plate (Costar) using F12 medium (Gibco) supplemented with 10% FCS (EuroClone, Italy) 2 mM L-glutamine and 1% penicillin/streptomycin and maintained at 37° C., 5% CO2 and 96% relative humidity. The following day, plates were treated in duplicates with 5 ul of an appropriate dilution of compounds starting from a 10 mM stock in DMSO. Two untreated control wells were included in each plate. After 72 hours of treatment, medium was withdrawn and cells detached from each well using 0.5 mL of 0.05% (w/v) Trypsin, 0.02% (w/v) EDTA (Gibco). Samples were diluted with 9.5 mL of Isoton (Coulter) and counted using a Multisizer 3 cell counter (Beckman Coulter). Data were evaluated as percent of the control wells: % of CTR=(Treated−Blank)/(Control−Blank).
IC50 values were calculated by LSW/Data Analysis using Microsoft Excel sigmoidal curve fitting.

The target of the next assay is T1, Aurora-2 (Homo sapiens, UniProt O14965).
T1 sequence (O14965 1-403): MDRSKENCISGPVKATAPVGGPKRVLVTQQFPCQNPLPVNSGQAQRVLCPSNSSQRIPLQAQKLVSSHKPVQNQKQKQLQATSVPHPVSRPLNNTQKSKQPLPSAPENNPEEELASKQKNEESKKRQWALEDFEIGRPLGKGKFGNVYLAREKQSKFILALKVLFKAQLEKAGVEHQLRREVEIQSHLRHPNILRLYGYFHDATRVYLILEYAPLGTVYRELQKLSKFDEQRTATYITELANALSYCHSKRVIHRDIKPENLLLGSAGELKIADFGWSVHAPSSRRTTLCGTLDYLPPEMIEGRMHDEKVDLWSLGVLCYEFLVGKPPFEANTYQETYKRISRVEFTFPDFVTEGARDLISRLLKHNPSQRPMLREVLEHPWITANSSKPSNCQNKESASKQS
In words: Inhibition assay of Aurora-2 activity (SPA). Format: biochemical. The conditions noted are these: 10 μM ATP, 60 minutes at room temperature. As to the method:
The inhibiting activity and the potency of selected compounds is determined through a method of assay based on the use of the SPA technology (Amersham Pharmacia Biotech).
The assay consists of the transfer of radioactivity labelled phosphate moiety by the kinase to a biotinylated substrate. The resulting 33P-labelled biotinylated product is allowed to bind to streptavidin-coated SPA beads (biotin capacity 130 pmol/mg), and light emitted was measured in a scintillation counter.
Inhibition Assay of Aurora-2 Activity
Kinase reaction: 8 μM biotinylated peptide (4 repeats of LRRWSLG) (SEQ ID NO:2), 10 μM ATP (0.5 uCiP^33 γ-ATP), 7.5 ng Aurora 2, inhibitor in a final volume of 30 μl buffer (HEPES 50 mM pH 7.0, MgCl2 10 mM, 1 mM DTT, 0.2 mg/mL BSA, 3 μM orthovanadate) were added to each well of a 96 U bottom well plate. After 60 minutes at room temperature incubation, reaction was stopped and biotinylated peptide captured by adding 100 μl of bead suspension.
Stratification: 100 μl of CsCl 5 M were added to each well and let stand 4 hour before radioactivity was counted in the Top-Count instrument.
IC50 determination: inhibitors were tested at different concentrations ranging from 0.0015 to 10 μM. […]

Turning to `CC(C)(NC(=O)c1cc2c(NC(=O)c3ccccc3NC(=O)c3ccc[nH]3)n[nH]c2s1)c1ccccc1` [Compound (1), 3-{2-[(1H-pyrrole-2-carbonyl)-amino]-benzoylamino}-1H-thieno[2,3-c]pyrazole-5-carboxylic acid (1-methyl-1-phenyl-ethyl)-amide], the IC50 in assay [1] is 7 nM; at Aurora-2, 6 nM.

`CC(C)(NC(=O)c1cc2c(NC(=O)c3ccccc3NC(=O)c3ccc[nH]3)n[nH]c2s1)c1ccccc1F` [Compound (2), 3-{2-[(1H-pyrrole-2-carbonyl)-amino]-benzoylamino}-1H-thieno[2,3-c]pyrazole-5-carboxylic acid [1-(2-fluoro-phenyl)-1-methyl-ethyl]-amide]: the IC50 is 54 nM in assay [1] and 12 nM on Aurora-2.

For the origin of these results see patent publication US7943654B2, “1H-thieno[2,3-c]pyrazole compounds useful as kinase inhibitors” (Nerviano Medical Sciences S.R.L., priority 2005, dated 2011).
